Results from US20120322863A1, “PREVENTION OF AND COUNTERMEASURES AGAINST MITOCHONDRIAL DISEASE” (priority 2004, published 2012).

Test system: patient with mitochondrial disease
Test: Clinical Example 2: administration to a patient with mitochondrial disease
Format: in vivo, human
Conditions: agent dose in terms of L-arginine 0.5 g/kg/hr
Protocol: The agent for treating mitochondrial disease of the present invention was administered to a patient with mitochondrial disease at a dose in terms of L-arginine of 0.5 g/kg/hr.

## N=C(N)NCCC[C@H](N)C(=O)O [L-arginine alone, L-arginine]
  effects on the symptoms of the mitochondrial disease: did not sufficiently exhibit
  vomiting: repetitive vomiting
